# Data published in the kinase profiling compilation of Christmann-Franck et al. (2016).
# What was measured:
# Conditions in all cases: compound 10.0 µM
# ACVR1 (human) = ACVR1 (human) (UniProt Q04771)
# ACVR2B (human) = ACVR2B (human) (UniProt Q13705)
# ACVRL1 (human) = ACVRL1 (human) (UniProt P37023)
# ALK (human) = ALK (human) (UniProt Q9UM73)
# AURKC (human) = AURKC (human) (UniProt Q9UQB9)
# AXL (human) = AXL (human) (UniProt P30530)
# BMPR1B (human) = BMPR1B (human) (UniProt O00238)
# BMPR2 (human) = BMPR2 (human) (UniProt Q13873)
# CDC42BPA (human) = CDC42BPA (human) (UniProt Q5VT25)
# CDK3 (human) = CDK3 (human) (UniProt Q00526)
# CLK4 (human) = CLK4 (human) (UniProt Q9HAZ1)
# Chain of CLK4 (human) (Q9HAZ1 whole entry, looked up): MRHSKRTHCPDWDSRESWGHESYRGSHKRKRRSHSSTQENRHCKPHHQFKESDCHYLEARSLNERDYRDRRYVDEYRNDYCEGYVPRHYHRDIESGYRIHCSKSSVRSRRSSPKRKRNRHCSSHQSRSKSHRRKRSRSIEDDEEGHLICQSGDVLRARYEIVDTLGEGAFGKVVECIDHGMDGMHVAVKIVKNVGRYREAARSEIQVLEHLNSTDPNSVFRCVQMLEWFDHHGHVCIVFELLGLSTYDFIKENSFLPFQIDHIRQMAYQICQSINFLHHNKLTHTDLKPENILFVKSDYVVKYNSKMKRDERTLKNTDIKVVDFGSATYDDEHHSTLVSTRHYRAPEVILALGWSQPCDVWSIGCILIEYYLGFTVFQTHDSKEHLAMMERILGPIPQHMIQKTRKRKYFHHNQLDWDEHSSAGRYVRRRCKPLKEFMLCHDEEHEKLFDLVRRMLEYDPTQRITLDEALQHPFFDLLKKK
# CRK2 (P.falciparum) = CRK2 (P.falciparum) (UniProt P61075)
# CSNK1E (human) = CSNK1E (human) (UniProt P49674)
# Chain of CSNK1E (human) (P49674 whole entry, looked up): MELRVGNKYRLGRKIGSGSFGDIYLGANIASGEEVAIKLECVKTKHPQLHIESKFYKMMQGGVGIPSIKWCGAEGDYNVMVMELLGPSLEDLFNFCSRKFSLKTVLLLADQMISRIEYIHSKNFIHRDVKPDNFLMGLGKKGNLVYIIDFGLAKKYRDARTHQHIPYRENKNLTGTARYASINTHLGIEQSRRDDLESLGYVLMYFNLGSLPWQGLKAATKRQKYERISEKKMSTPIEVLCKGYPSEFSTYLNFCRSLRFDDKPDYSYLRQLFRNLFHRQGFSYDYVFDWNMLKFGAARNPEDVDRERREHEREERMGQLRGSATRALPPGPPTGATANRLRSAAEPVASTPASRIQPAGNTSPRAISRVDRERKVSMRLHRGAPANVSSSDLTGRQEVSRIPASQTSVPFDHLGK
# DAPK1 (human) = DAPK1 (human) (UniProt P53355)
# EPHA2 (human) = EPHA2 (human) (UniProt P29317)
# EPHA4 (human) = EPHA4 (human) (UniProt P54764)
# FGFR3 (human) = FGFR3 (human) (UniProt P22607)
# FLT1 (human) = FLT1 (human) (UniProt P17948)
# Chain of FLT1 (human) (P17948 whole entry, looked up): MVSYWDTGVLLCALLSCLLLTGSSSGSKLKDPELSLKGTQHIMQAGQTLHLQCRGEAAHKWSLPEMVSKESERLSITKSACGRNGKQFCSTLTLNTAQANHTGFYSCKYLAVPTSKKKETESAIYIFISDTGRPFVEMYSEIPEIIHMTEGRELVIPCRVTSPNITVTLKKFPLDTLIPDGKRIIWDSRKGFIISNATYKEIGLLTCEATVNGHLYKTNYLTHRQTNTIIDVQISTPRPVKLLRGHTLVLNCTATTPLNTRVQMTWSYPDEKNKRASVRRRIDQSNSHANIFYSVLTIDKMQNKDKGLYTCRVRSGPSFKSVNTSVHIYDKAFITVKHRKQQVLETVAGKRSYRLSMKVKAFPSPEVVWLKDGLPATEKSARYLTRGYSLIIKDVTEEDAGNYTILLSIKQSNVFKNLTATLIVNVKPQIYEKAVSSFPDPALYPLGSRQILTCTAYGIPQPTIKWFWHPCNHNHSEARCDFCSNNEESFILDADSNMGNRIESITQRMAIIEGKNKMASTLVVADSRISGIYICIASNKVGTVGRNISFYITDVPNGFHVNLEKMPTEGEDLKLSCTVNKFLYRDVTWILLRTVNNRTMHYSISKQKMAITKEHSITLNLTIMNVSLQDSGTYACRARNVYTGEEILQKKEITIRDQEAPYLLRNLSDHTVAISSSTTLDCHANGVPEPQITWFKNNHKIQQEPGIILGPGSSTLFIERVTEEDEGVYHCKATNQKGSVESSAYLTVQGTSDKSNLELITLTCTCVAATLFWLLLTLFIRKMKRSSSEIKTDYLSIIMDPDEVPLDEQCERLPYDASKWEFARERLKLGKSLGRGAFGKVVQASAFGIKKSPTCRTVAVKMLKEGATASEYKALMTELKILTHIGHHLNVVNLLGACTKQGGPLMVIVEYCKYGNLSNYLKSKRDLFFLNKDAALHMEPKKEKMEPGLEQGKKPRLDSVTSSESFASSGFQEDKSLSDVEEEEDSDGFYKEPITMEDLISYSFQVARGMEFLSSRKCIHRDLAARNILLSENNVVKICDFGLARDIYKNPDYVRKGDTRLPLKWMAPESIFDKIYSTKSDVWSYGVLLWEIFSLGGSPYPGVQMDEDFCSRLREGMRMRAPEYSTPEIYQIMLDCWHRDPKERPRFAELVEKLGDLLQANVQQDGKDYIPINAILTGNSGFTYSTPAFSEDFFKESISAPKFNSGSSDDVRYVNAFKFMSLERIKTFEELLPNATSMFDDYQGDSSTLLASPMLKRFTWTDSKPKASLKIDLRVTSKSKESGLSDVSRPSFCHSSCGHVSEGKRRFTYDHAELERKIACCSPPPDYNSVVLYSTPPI
# GSK3B (human) = GSK3B (human) (UniProt P49841)
# ICK (human) = ICK (human) (UniProt Q9UPZ9)
# IRAK4 (human) = IRAK4 (human) (UniProt Q9NWZ3)
# ITK (human) = ITK (human) (UniProt Q08881)
# KIT (human) = KIT (human) (UniProt P10721)
# MAP3K15 (human) = MAP3K15 (human) (UniProt Q6ZN16)
# MET (human) = MET (human) (UniProt P08581)
# Chain of MET (human) (P08581 whole entry, looked up): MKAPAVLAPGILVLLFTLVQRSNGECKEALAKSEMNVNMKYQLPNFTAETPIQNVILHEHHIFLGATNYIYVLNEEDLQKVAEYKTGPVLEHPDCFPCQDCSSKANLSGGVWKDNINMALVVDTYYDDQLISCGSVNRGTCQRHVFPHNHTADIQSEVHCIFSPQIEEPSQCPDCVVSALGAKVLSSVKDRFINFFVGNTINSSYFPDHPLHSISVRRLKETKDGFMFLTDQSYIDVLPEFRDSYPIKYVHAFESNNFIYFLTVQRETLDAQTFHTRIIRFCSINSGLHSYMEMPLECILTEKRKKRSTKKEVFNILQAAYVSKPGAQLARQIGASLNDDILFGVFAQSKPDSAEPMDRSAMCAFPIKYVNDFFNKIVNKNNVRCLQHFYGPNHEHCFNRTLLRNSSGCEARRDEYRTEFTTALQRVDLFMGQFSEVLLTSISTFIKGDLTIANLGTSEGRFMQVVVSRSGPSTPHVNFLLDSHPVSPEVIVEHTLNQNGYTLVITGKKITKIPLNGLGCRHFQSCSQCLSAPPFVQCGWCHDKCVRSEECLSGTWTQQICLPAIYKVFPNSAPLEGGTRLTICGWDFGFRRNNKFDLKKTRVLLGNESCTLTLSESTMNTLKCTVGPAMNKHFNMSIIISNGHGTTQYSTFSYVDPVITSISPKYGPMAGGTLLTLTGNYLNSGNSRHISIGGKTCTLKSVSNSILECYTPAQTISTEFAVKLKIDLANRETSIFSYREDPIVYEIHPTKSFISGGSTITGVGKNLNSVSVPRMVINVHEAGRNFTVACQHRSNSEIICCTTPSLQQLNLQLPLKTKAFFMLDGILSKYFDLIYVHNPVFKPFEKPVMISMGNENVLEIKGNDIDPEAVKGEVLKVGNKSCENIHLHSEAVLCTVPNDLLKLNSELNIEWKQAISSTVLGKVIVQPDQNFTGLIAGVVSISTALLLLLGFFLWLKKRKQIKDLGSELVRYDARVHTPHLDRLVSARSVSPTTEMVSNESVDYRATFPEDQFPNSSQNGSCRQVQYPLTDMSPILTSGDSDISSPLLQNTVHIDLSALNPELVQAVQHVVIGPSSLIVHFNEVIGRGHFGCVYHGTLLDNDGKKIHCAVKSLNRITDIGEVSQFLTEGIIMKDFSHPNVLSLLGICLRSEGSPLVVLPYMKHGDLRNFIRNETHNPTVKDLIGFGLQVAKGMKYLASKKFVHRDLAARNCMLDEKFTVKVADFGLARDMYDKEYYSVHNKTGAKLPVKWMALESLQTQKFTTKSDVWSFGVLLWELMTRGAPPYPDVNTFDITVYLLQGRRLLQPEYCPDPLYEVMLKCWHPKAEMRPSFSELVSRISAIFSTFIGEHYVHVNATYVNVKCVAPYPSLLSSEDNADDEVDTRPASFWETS
# MUSK (human) = MUSK (human) (UniProt O15146)
# NEK6 (human) = NEK6 (human) (UniProt Q9HC98)
# NUAK2 (human) = NUAK2 (human) (UniProt Q9H093)
# PI4KB (human) = PI4KB (human) (UniProt Q9UBF8)
# PRKAA1 (human) = PRKAA1 (human) (UniProt Q13131)
# PRKAA2 (human) = PRKAA2 (human) (UniProt P54646)
# PRKD2 (human) = PRKD2 (human) (UniProt Q9BZL6)
# SRPK1 (human) = SRPK1 (human) (UniProt Q96SB4)
# Chain of SRPK1 (human) (Q96SB4 whole entry, looked up): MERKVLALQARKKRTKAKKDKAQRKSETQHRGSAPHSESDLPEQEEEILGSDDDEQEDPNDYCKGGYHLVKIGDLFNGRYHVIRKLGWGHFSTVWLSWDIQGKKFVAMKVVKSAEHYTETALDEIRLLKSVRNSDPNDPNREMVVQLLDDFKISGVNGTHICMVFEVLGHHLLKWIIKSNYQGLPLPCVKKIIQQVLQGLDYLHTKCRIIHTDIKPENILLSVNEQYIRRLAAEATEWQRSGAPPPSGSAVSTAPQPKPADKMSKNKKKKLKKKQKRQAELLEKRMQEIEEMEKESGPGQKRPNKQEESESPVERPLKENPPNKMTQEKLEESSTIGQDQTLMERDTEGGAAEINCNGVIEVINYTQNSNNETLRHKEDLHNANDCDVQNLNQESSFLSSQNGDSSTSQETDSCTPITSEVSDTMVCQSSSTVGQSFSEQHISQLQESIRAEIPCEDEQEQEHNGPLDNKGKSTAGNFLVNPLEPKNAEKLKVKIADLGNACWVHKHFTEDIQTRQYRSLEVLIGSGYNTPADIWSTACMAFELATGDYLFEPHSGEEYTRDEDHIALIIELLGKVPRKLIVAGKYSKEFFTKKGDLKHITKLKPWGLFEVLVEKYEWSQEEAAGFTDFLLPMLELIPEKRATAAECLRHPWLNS
# STK17A (human) = STK17A (human) (UniProt Q9UEE5)
# STK17B (human) = STK17B (human) (UniProt O94768)
# STK32C (human) = STK32C (human) (UniProt Q86UX6)
# STK33 (human) = STK33 (human) (UniProt Q9BYT3)
# Chain of STK33 (human) (Q9BYT3 whole entry, looked up): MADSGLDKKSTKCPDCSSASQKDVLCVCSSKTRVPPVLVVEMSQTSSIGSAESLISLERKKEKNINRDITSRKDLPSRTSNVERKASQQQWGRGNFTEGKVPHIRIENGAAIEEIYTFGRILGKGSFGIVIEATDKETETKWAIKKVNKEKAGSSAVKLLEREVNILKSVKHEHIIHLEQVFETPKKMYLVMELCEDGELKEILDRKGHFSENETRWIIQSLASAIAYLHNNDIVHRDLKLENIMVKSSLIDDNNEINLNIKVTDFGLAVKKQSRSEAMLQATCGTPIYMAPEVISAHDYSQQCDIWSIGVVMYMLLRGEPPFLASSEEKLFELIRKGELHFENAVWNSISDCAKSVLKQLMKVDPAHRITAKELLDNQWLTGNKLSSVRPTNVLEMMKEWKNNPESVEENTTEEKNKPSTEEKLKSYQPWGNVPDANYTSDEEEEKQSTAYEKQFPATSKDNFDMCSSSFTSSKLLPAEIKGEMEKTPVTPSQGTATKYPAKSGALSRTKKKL
# STK39 (human) = STK39 (human) (UniProt Q9UEW8)
# TGFBR2 (human) = TGFBR2 (human) (UniProt P37173)
# TLK2 (human) = TLK2 (human) (UniProt Q86UE8)
# WEE2 (human) = WEE2 (human) (UniProt P0C1S8)
# ZAP70 (human) = ZAP70 (human) (UniProt P43403)
compound,measurement,setting,value
CNC(=O)c1cc(Oc2ccc(NC(=O)Nc3ccc(Cl)c(C(F)(F)F)c3)cc2)ccn1,per cent of control,ACVR1 (human),100%
same,per cent of control,ACVR2B (human),68%
same,per cent of control,ACVRL1 (human),100%
same,per cent of control,ALK (human),100%
same,per cent of control,AURKC (human),12%
same,per cent of control,AXL (human),5.4%
same,per cent of control,BMPR1B (human),93%
same,per cent of control,BMPR2 (human),100%
same,per cent of control,CDC42BPA (human),96%
same,per cent of control,CDK3 (human),41%
same,per cent of control,CLK4 (human),30%
same,per cent of control,CRK2 (P.falciparum),59%
same,per cent of control,CSNK1E (human),99%
same,per cent of control,DAPK1 (human),95%
same,per cent of control,EPHA2 (human),9%
same,per cent of control,EPHA4 (human),15%
same,per cent of control,FGFR3 (human),20%
same,per cent of control,FLT1 (human),0.7%
same,per cent of control,GSK3B (human),92%
same,per cent of control,ICK (human),100%
same,per cent of control,IRAK4 (human),100%
same,per cent of control,ITK (human),100%
same,per cent of control,KIT (human),0%
same,per cent of control,MAP3K15 (human),79%
same,per cent of control,MET (human),74%
same,per cent of control,MUSK (human),0%
same,per cent of control,NEK6 (human),100%
same,per cent of control,NUAK2 (human),100%
same,per cent of control,PI4KB (human),100%
same,per cent of control,PRKAA1 (human),32%
same,per cent of control,PRKAA2 (human),60%
same,per cent of control,PRKD2 (human),100%
same,per cent of control,SRPK1 (human),100%
same,per cent of control,STK17A (human),58%
same,per cent of control,STK17B (human),66%
same,per cent of control,STK32C (human),72%
same,per cent of control,STK33 (human),6%
same,per cent of control,STK39 (human),76%
same,per cent of control,TGFBR2 (human),25%
same,per cent of control,TLK2 (human),99%
same,per cent of control,WEE2 (human),100%
same,per cent of control,ZAP70 (human),91%
CNC(=O)c1cc(Oc2ccc(NC(=O)Nc3ccc(Cl)c(C(F)(F)F)c3)cc2)cc[n+]1[O-],per cent of control,ACVR1 (human),100%
same,per cent of control,ACVR2B (human),22%
same,per cent of control,ACVRL1 (human),96%
same,per cent of control,ALK (human),94%
same,per cent of control,AURKC (human),15%
same,per cent of control,AXL (human),1.8%
same,per cent of control,BMPR1B (human),81%
same,per cent of control,BMPR2 (human),98%
same,per cent of control,CDC42BPA (human),90%
same,per cent of control,CDK3 (human),13%
same,per cent of control,CLK4 (human),47%
same,per cent of control,CRK2 (P.falciparum),100%
same,per cent of control,CSNK1E (human),100%
same,per cent of control,DAPK1 (human),85%
same,per cent of control,EPHA2 (human),4.7%
same,per cent of control,EPHA4 (human),13%
same,per cent of control,FGFR3 (human),32%
same,per cent of control,FLT1 (human),0.65%
same,per cent of control,GSK3B (human),79%
same,per cent of control,ICK (human),100%
same,per cent of control,IRAK4 (human),100%
same,per cent of control,ITK (human),100%
same,per cent of control,KIT (human),0%
same,per cent of control,MAP3K15 (human),80%
same,per cent of control,MET (human),16%
same,per cent of control,MUSK (human),0.2%
same,per cent of control,NEK6 (human),100%
same,per cent of control,NUAK2 (human),85%
same,per cent of control,PI4KB (human),100%
same,per cent of control,PRKAA1 (human),36%
same,per cent of control,PRKAA2 (human),49%
same,per cent of control,PRKD2 (human),83%
same,per cent of control,SRPK1 (human),100%
same,per cent of control,STK17A (human),66%
same,per cent of control,STK17B (human),62%
same,per cent of control,STK32C (human),87%
same,per cent of control,STK33 (human),6.9%
same,per cent of control,STK39 (human),87%
same,per cent of control,TGFBR2 (human),3.1%
same,per cent of control,TLK2 (human),100%
same,per cent of control,WEE2 (human),94%
same,per cent of control,ZAP70 (human),77%
